{"source": "paper PMC9699600", "about": "“Characterization of a Family of Scorpion Toxins Modulating Ca^2+-Activated Cl^− Current in Vascular Myocytes” (Toxins, 2022)", "key": {"[1]": {"system": "Ca2+-activated and voltage-activated K+ currents", "assay": "Ca2+-activated and voltage-activated K+ currents, patch clamp", "type": "cell-based, rat", "conditions": "100 nM, sequential application", "procedure": "For K^+ current recording, the patch-clamp pipette contained 130 mM KCl and the external solution contained 5.6 mM KCl. Ca^2+-activated and voltage-activated K^+ currents were elicited by depolarizing pulses from −80 to 0 mV and Ca^2+-activated K^+ currents were activated by the opening of Ca^2+ channel during the depolarization step.\nVoltage-clamp and membrane current recordings were made with a standard patch-clamp technique using a List EPC-7 patch-clamp amplifier (Darmstadt-Eberstadt, Germany). Patch pipettes had resistances of 3–4 MΩ. […] Patch-clamp experiments were carried out at 30 ± 1 °C.\nThe normal physiological solution contained (in mM): NaCl 130, KCl 5.6, MgCl2 1, CaCl2 2, glucose 11 and HEPES 10, pH 7.4 with NaOH. The basic pipette solution contained (in mM) CsCl 130, HEPES 10 and pH 7.3 with NaOH (CsCl was replaced by KCl for potassium current measurements). […] Lqh peptides, chlorotoxin and other toxins were added in a bath solution."}, "[2]": {"biological_target": "T1, Ca2+-activated Cl− current (TMEM16A/Ano1) in rat portal vein myocytes (Rattus norvegicus, UniProt A0A8I6GL36)", "T1 construct": "Isolated myocytes from rat portal veins were obtained by enzymatic dispersion; endogenous in cells; host or cells: freshly dissociated rat portal vein smooth muscle cells (short-term primary culture, used within 24 h)", "T1 sequence (A0A8I6GL36 1-990)": "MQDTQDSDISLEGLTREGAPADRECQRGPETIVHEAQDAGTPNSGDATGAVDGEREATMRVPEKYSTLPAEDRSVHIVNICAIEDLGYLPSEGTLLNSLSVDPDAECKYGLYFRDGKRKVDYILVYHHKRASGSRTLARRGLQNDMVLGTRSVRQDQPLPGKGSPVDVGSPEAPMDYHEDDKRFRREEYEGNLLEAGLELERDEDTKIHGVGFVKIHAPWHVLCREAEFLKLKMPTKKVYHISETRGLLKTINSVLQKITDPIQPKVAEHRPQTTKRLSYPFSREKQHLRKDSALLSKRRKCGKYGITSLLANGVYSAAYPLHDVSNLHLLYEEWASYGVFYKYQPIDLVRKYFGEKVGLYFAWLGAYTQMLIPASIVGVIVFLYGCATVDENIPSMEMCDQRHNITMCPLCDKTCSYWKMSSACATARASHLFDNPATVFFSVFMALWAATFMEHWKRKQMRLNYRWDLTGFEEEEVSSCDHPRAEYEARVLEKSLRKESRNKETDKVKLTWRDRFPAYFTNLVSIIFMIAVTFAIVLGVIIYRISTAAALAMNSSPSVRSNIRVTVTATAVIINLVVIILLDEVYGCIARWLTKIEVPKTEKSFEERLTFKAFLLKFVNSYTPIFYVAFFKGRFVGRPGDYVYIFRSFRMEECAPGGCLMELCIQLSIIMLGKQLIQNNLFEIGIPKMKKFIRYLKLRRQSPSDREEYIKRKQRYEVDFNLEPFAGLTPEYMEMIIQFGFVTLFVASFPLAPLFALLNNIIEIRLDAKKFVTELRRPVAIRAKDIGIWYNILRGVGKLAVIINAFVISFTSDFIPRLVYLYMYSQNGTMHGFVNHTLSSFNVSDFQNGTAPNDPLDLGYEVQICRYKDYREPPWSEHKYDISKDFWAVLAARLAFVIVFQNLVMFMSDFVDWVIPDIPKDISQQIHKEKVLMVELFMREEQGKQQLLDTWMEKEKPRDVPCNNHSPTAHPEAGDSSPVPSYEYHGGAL", "assay": "Ca2+-activated Cl− current evoked by caffeine, whole-cell patch clamp", "type": "cell-based", "conditions": "1 µM external application, 10 mM caffeine, holding potential −50 mV", "procedure": "In rat portal vein myocytes, at a holding potential of −50 mV, the external application of 10 mM caffeine induces a transient current depending on an increase in cytoplasmic Ca^2+ concentration, this current was characterized as Cl^− current [9] in the used experimental conditions. The amplitude of the Ca^2+-activated Cl^− current in our setup was 190 ± 20 pA (n = 101).\nIsolated myocytes from rat portal veins were obtained by enzymatic dispersion, as described previously (Morel et al. 1996).\nVoltage-clamp and membrane current recordings were made with a standard patch-clamp technique using a List EPC-7 patch-clamp amplifier (Darmstadt-Eberstadt, Germany). Patch pipettes had resistances of 3–4 MΩ. When [Ca^2+]i measurements were carried out simultaneously, Indo-1 (50 µM) was added to the pipette solution in the whole-cell recording mode and [Ca^2+]i was estimated from the 405/480 nm fluorescence ratio, using a calibration determined within cells, as previously described [36]. Patch-clamp experiments were carried out at 30 ± 1 °C. […]\nThe pooled data of n experiments are given as mean ± standard error. […] Inhibition-response curves were analyzed by a nonlinear least-squares fitting program according to models involving one or two binding sites (Graphpad-Prism software)."}}, "data": [{"substance": "charybdotoxin", "values": [{"measurement": "effect on K+ currents (confirmation of both types of K+ currents)", "setting": "[1]", "value": "inhibition"}]}, {"substance": "scyllatoxin (AFCNLRMCQLSCRSLGLLGKCIGDKCECVKH; UniProt P16341 1-31, looked up) [K+ channel toxin from Latoxan]", "values": [{"measurement": "effect on K+ currents (confirmation of both types of K+ currents)", "setting": "[1]", "value": "inhibition"}]}, {"substance": "chlorotoxin", "values": [{"measurement": "inhibition of the Ca2+-activated Cl− current at 1 µM", "setting": "[2]", "value": "36 ± 9", "unit": "%"}]}]}
